Results reported in PMC2397535 (Breast Cancer Research : BCR, 2008).
Where two headings read alike, the source gives them in different places.

Experiments:
MDA-MB-157 = test: antiproliferative effect (GI50), breast cancer cell line; format: cell-based; conditions: Homo sapiens
MDA-MB-468 = test: as above; format: cell-based; conditions: Homo sapiens
MAXF 1322 = test: clonogenic (soft agar colony formation) assay, primary breast tumor; format: cell-based, human
[1] = system: human breast cancer explants; test: clonogenic assay, six human breast cancer explants (summary values); format: cell-based
[2] = pharmacokinetics and biodistribution in BT-474 tumor-bearing mice (HPLC/MS-MS); format: in vivo; conditions: for Kp: intravenous; for Kp / half-life: 30 mg/kg
Protocol: At various time points, mice (n = 4) were sacrificed and blood and tissues (tumor, liver, lung, heart, and muscles) were dissected. […] Frozen tissues were minced, then homogenized in an equal volume of ice-cold phosphate-buffered saline (Sigma P4417; Sigma-Aldrich) using a Polytron homogenizer (TP18-10; IKA, Staufen, Germany) and keeping the material cold during the homogenization. After the addition of 50 μL of internal standard (1 μg/mL) to analytical aliquots (25 to 250 μL) of plasma or tissue homogenate, the proteins were precipitated by the addition of an equal volume of acetonitrile and processed further for chromatographic separation. […] An aliquot (5 μL) of this solution was separated on a […] Ultra Cyano reverse-phase HPLC column (column size 50 × 1 mm, particle size 3 μm, preceded by a guard column: PhenomenexTM AJO-4304 Phenylpropyl, size 4 × 2 mm (Phenomenex, Torrance, CA, USA)) with a mobile phase consisting of a mixture of 0.2% formic acid in water (solvent A) and 0.2% formic acid in acetonitrile (solvent B). The column eluent was introduced directly into the ion source of the triple-quadrupole mass spectrometer Quattro UltimaTM (Micromass Limited, now part of Waters Corporation, Milford, MA, USA) controlled by MasslynxTM 4.0 software. Positive electrospray ionization multiple-reaction monitoring was used for the MS/MS detection of the analyte. Precursors to product ion transitions of m/z 466.[…]/z 308.20 for NVP-AUY922-NX and m/z 480.[…]/z 308.15 for IS VER814 were used. […] Regression analysis and further calculations were performed using QuanLynxTM 4.0 (Waters Corporation, Milford, MA, USA) and ExcelTM 2002 (Microsoft Corporation, Redmond, WA, USA). Concentrations of unknown samples were calculated from the peak area ratio of the product ion of the analytes to the product ion of its internal standard (ordinate) against the nominal concentration (abscissa). Assay linearity was indicated by an overall regression coefficient of 0.9975.

[3] = tolerability (body weight, survival) in BT-474 tumor-bearing nude mice; format: in vivo
Protocol: Invasive procedures were performed under Forene anesthesia. […] The animals were fed food and water ad libitum.
Tumor growth and body weights were monitored at regular intervals. The xenograft tumor sizes were measured manually with calipers, and the tumor volume was estimated using the formula (w × l × h × π/6), where width (w), height (h), and length (l) are the three largest diameters.
When applicable, results are presented as mean ± standard error of the mean. Tumor and body weight data were analyzed by analysis of variance (ANOVA) with the post hoc Dunnett test for comparison of treatment versus control groups. The post hoc Tukey test was used for intragroup comparison. Statistical analysis was performed using GraphPad Prism 5 (GraphPad Software, Inc., San Diego, CA, USA). As a measure of efficacy, the %T/C value is calculated at the end of the experiment according to (Δtumor volumetreated/Δtumor volumecontrol) × 100, where Δtumor volumes represent the mean tumor volume on the evaluation day minus the mean tumor volume at the start of the experiment.

HSP90α = conditions: read-out: IC50 (median inhibition concentration); cited from earlier work
[4] = 48 hours after compound administration

CCNC(=O)c1noc(-c2cc(C(C)C)c(O)cc2O)c1-c1ccc(CN2CCOCC2)cc1 [NVP-AUY922]
GI50 (MDA-MB-157): 126 ± 37 nM
GI50 (MDA-MB-468): 6.3 ± 2.6 nM
IC70 (colony formation) (MAXF 1322): 48 nM
IC50 (MAXF 1322; Homo sapiens): 29 nM
GI50 ([1]; Homo sapiens, one highly resistant tumor explant, highest concentration evaluated, read-out: GI50): > 10000 nM
average GI70 ([1]; five out of the six human breast cancer explants): 379 nM
GI50 ([1]; five out of the six human breast cancer explants, read-out: average GI50): 191 nM
tumor concentration [2, 4]: 2.22 nmol/g
Kp ([2]; female, athymic, mouse, heart, read-out: tissue exposure over 48 hours relative to plasma): 5
half-life ([2]; female, athymic, mouse, heart, iv, heart, 30 mg/kg single i.v., read-out: T 1/2 elimination λ_z (converted)): 5.6 h
AUC(0-t) ([2]; female, athymic, mouse, iv, plasma, 30 mg/kg single i.v., read-out: AUC(0-8)): 7.3 µM·h
Cmax ([2]; female, athymic, mouse, iv, plasma, 30 mg/kg single i.v., read-out: Cmax): 14.1 ± 4.14 µM
Kp ([2]; female, athymic, mouse, liver, read-out: tissue exposure over 48 hours relative to plasma): 7
half-life ([2]; female, athymic, mouse, liver, iv, liver, 30 mg/kg single i.v., read-out: T 1/2 elimination λ_z (converted)): 7.7 h
half-life ([2]; female, athymic, mouse, liver, lung, heart, muscle, iv, liver, lung, heart, muscle, read-out: terminal elimination half-life from non-tumor tissues): 5.5 to 8 h
Kp ([2]; female, athymic, mouse, lung, read-out: tissue exposure over 48 hours relative to plasma): 10
half-life ([2]; female, athymic, mouse, lung, iv, lung, 30 mg/kg single i.v., read-out: T 1/2 elimination λ_z (converted)): 5.5 h
Kp ([2]; female, athymic, mouse, muscle, read-out: tissue exposure over 48 hours relative to plasma): 5
half-life ([2]; female, athymic, mouse, muscle, iv, muscle, 30 mg/kg single i.v., read-out: T 1/2 elimination λ_z (converted)): 8 h
half-life ([2]; female, athymic, mouse, plasma, iv, based on the last three time points, read-out: apparent terminal elimination half-life in plasma (converted)): 10 h
half-life ([2]; female, athymic, mouse, plasma, iv, plasma, 30 mg/kg single i.v., read-out: T 1/2 elimination λ_z (converted)): 10.3 h
Kp ([2]; female, athymic, mouse, tumor, read-out: tumor exposure relative to plasma): ~47
half-life ([2]; female, athymic, mouse, tumor, iv, tumor, 30 mg/kg single i.v., read-out: T 1/2 elimination λ_z (converted)): 30 h
half-life ([2]; female, athymic, mouse, tumor, iv, tumor, read-out: terminal half-life in tumor): 25 to 30 h
AUC(0-8) ([2]; heart, 30 mg/kg single i.v.): 32 nmol·h/g
Cmax ([2]; heart, 30 mg/kg single i.v.): 36.86 ± 7.42 nmol/g
dose-normalized plasma exposure ([2]; i.v. 20 mg/kg): 0.28 µmol·h/L
dose-normalized plasma exposure ([2]; i.v. 30 mg/kg): 0.24 µmol·h/L
AUC(0-8) ([2]; liver, 30 mg/kg single i.v.): 53 nmol·h/g
Cmax ([2]; liver, 30 mg/kg single i.v.): 30.94 ± 5.58 nmol/g
AUC(0-8) ([2]; lung, 30 mg/kg single i.v.): 71 nmol·h/g
Cmax ([2]; lung, 30 mg/kg single i.v.): 48.48 ± 10.11 nmol/g
AUC(0-8) ([2]; muscle, 30 mg/kg single i.v.): 35 nmol·h/g
Cmax ([2]; muscle, 30 mg/kg single i.v.): 27.45 ± 6.64 nmol/g
Cmax (highest concentration) ([2]; tumor): 16.3 nmol/g
tumor drug level at 48 hours as share of Cmax ([2]; tumor): approximately 13%
AUC(0-8) ([2]; tumor, 30 mg/kg single i.v.): 345 nmol·h/g
Cmax ([2]; tumor, 30 mg/kg single i.v.): 16.36 ± 3.84 nmol/g
body weights compared with vehicle ([3]; single i.v. administration, 17 or 25 mg/kg): did not affect body weights
body weight ([3]; three times per week i.v., all dose levels (10, 30, 50 mg/kg)): significant body weight loss
